Data reported in US20250019520A1, “RELIEF PRECURSORS WITH ENHANCED STABILITY” (XSYS Germany GmbH, priority 2023, published 2025).

Assay: Thermal melt stability: onset time of crosslinking by oscillatory rheology at 160° C., SBS-rubber based trial formulation
Type: physicochemical
Conditions: SBS-rubber based plate formulation with 1 wt % carbamate derivative, crude reaction mixture added without purification
Procedure: In the given examples, the amount of stabilizer was varied in the range of 0 to 6.5 parts by weight and the excess was counterbalanced by the amount of binder, respectively. The components were dissolved in a solvent, being toluene (also called methylbenzene) and heated under reflux to obtain a homogeneous solution (concentration in toluene: 45 wt. %).
The solution was then cast on a carrier sheet. The plate thickness was adjusted using a doctor blade with a gap of 3 mm distance to the carrier sheet (PET film with 175 μm thickness).
The solvent was allowed to evaporate at room temperature for 16 hours followed by heating at 65° C. for 4 hours. To allow digital imaging, a mask layer (ML) coated on a cover sheet (CL) was laminated on top of the relief precursor using an Excelam-Q laminator (GMP Deutschland GmbH, Germany). Lamination was carried out at a temperature of the heated roll of 110° C., a velocity of 8.8 mm/s, and at a gap of 1.5 mm. To finish the lamination, the cast plate was sandwiched between two aluminum plates and was kept at 65° C. for 3 h.
The thermal melt stability was assessed by recording the melt viscosity during heating. Crosslinking of the sample was recorded as an increase in viscosity. Oscillatory rheological measurements were carried out using a Kinexus lab+rheometer (Malvern Instruments Ltd., UK) under isothermal (T=160° C.) conditions. Data was recorded using the corresponding software rSPACE version 1.76 (Malvern Instruments Ltd., UK). […] Prior to measurement, any foils (e.g. the cover sheet) and mask layers were removed from the relief precursor. Measurements were carried out in oscillation single frequency mode. The frequency was set to 1 Hz. The gap between the parallel plates was set constant to the respective sample thickness. Data points were recorded every 15 s. The complex shear viscosity η* was monitored over time t. The “onset time of crosslinking” was identified as “the time when the difference quotient Δη*/Δt is ≥1 Pa, with Δt=15 s”. A higher onset time indicates a higher thermal stability and stability towards mechanical stress.
Reaction mixtures were used completely without purification and were simply added to the plate formulation during homogenization in toluene solution. The stoichiometric amount of the reactants was calculated in a way to obtain a concentration of 1 wt % carbamate derivative in the plate formulation, assuming full conversion of the reactants. […] The reaction was quenched with an excess ethanol (same volume as the reaction mixture) and added to the plate formulation in toluene solution. The procedure for production of the plate precursor was followed as mentioned above. The solution was cast on a carrier sheet and traces of THF/ethanol were evaporated together with toluene during the drying step of the plate precursor.

SMILES | Onset time t (Δη*/Δt ≥ 1 Pa)/min (OT)
C=CC(=O)OCC(C)(COC(=O)C=C)NC(=O)OCC(OC(=O)NC(C)(COC(=O)C=C)COC(=O)C=C)C1OC(=O)C(O)=C1O (stereo not drawn) [Entry 17, 2-((8-((acryloyloxy)methyl)-3-(3,4-dihydroxy-5-oxo-2,5-dihydrofuran-2-yl)-8-methyl-6,11-dioxo-2,5,10-trioxa-7-azatridec-12-en-1-oyl)amino)-2-methylpropane-1,3-diyl diacrylate] | 6 min
C=Cc1ccc(C(C)(C)NC(=O)OCC(OC(=O)NC(C)(C)c2ccc(C=C)cc2)C2OC(=O)C(O)=C2O)cc1 (stereo not drawn) [Entry 7, 1-(3,4-dihydroxy-5-oxo-2,5-dihydrofuran-2-yl) ethane-1,2-diyl bis((2-(4-vinylphenyl)propan-2-yl) carbamate)] | 24 min
C[Si](C)(C)NC(=O)OCC(OC(=O)N[Si](C)(C)C)C1OC(=O)C(O)=C1O (stereo not drawn) [Entry 9, 1-(3,4-dihydroxy-5-oxo-2,5-dihydrofuran-2-yl) ethane-1,2-diyl bis((trimethylsilyl) carbamate)] | 5 min
C=C(C)C(=O)OCCNC(=O)OCC(OC(=O)NCCOC(=O)C(=C)C)C1OC(=O)C(O)=C1O (stereo not drawn) [Entry 6, 6-(3,4-dihydroxy-5-oxo-2,5-dihydrofuran-2-yl)-4,9-dioxo-5,8-dioxa-3,10-diazadodecane-1,12-diyl bis(2-methylacrylate)] | 33 min
CCO[Si](CCCNC(=O)OCC(OC(=O)NCCC[Si](OCC)(OCC)OCC)C1OC(=O)C(O)=C1O)(OCC)OCC (stereo not drawn) [Entry 4, 1-(3,4-dihydroxy-5-oxo-2,5-dihydrofuran-2-yl) ethane-1,2-diyl bis((3-(triethoxysilyl)propyl) carbamate)] | 20 min
O=C(NC1CCCCC1)OCC(OC(=O)NC1CCCCC1)C1OC(=O)C(O)=C1O (stereo not drawn) [Entry 8, 1-(3,4-dihydroxy-5-oxo-2,5-dihydrofuran-2-yl) ethane-1,2-diyl bis(cyclohexylcarbamate)] | 52 min
CCCCNC(=O)OCC(OC(=O)NCCCC)C1OC(=O)C(O)=C1O (stereo not drawn) [Entry 1, 1-(3,4-dihydroxy-5-oxo-2,5-dihydrofuran-2-yl) ethane-1,2-diyl bis(butylcarbamate)] | 74 min
Cc1ccc(S(=O)(=O)NC(=O)OCC(OC(=O)NS(=O)(=O)c2ccc(C)cc2)C2OC(=O)C(O)=C2O)cc1 (stereo not drawn) [Entry 2, 1-(3,4-dihydroxy-5-oxo-2,5-dihydrofuran-2-yl) ethane-1,2-diyl bis(tosylcarbamate)] | 5 min
CC(C)(C)NC(=O)OCC(OC(=O)NC(C)(C)C)C1OC(=O)C(O)=C1O (stereo not drawn) [Entry 5, 1-(3,4-dihydroxy-5-oxo-2,5-dihydrofuran-2-yl) ethane-1,2-diyl bis(tert-butylcarbamate)] | 34 min
O=C(Nc1ccccc1)OCC(OC(=O)Nc1ccccc1)C1OC(=O)C(O)=C1O (stereo not drawn) [Entry 3, 1-(3,4-dihydroxy-5-oxo-2,5-dihydrofuran-2-yl) ethane-1,2-diyl bis(phenylcarbamate)] | 51 min

Other lines, results leading:

Onset time t (Δη*/Δt ≥ 1 Pa)/min (OT) | SMILES
6 min | O=C(NCCc1ccccc1)OCC(OC(=O)NCCc1ccccc1)C1OC(=O)C(O)=C1O (stereo not drawn) [Entry 13, 1-(3,4-dihydroxy-5-oxo-2,5-dihydrofuran-2-yl) ethane-1,2-diyl bis(phenethylcarbamate)]
55 min | CC(C)c1ccc(NC(=O)OCC(OC(=O)Nc2ccc(C(C)C)cc2)C2OC(=O)C(O)=C2O)cc1 (stereo not drawn) [Entry 11, 1-(3,4-dihydroxy-5-oxo-2,5-dihydrofuran-2-yl) ethane-1,2-diyl bis((4-isopropylphenyl) carbamate)]
6 min | CCCCCCCCCCCCCCCCCCNC(=O)OCC(OC(=O)NCCCCCCCCCCCCCCCCCC)C1OC(=O)C(O)=C1O (stereo not drawn) [Entry 10, 1-(3,4-dihydroxy-5-oxo-2,5-dihydrofuran-2-yl) ethane-1,2-diyl bis(octadecylcarbamate)]
4 min | O=C(Nc1cccc2ccccc12)OCC(OC(=O)Nc1cccc2ccccc12)C1OC(=O)C(O)=C1O (stereo not drawn) [Entry 15, 1-(3,4-dihydroxy-5-oxo-2,5-dihydrofuran-2-yl) ethane-1,2-diyl bis(naphthalen-1-ylcarbamate)]
33 min | Cc1cccc(NC(=O)OCC(OC(=O)Nc2cccc(C)c2)C2OC(=O)C(O)=C2O)c1 (stereo not drawn) [Entry 12, 1-(3,4-dihydroxy-5-oxo-2,5-dihydrofuran-2-yl) ethane-1,2-diyl bis(m-tolylcarbamate)]
44 min | C=CCCCCCCCCCCNC(=O)OCC(OC(=O)NCCCCCCCCCCC=C)C1OC(=O)C(O)=C1O (stereo not drawn) [Entry 14, 1-(3,4-dihydroxy-5-oxo-2,5-dihydrofuran-2-yl) ethane-1,2-diyl bis(dodec-11-en-1-ylcarbamate)]

Assay: Thermal melt stability: onset time of crosslinking, SIS-rubber based formulation
Type: physicochemical
Conditions: 160° C.
Procedure: The thermal melt stability was assessed by recording the melt viscosity during heating. Crosslinking of the sample was recorded as an increase in viscosity. Oscillatory rheological measurements were carried out using a Kinexus lab+rheometer (Malvern Instruments Ltd., UK) under isothermal (T=160° C.) conditions. Data was recorded using the corresponding software rSPACE version 1.76 (Malvern Instruments Ltd., UK). As measurement geometry, parallel plates with a diameter of 2.5 cm of the upper plate were chosen. As sample, a disc of a relief precursor with a diameter of 2.5 cm was used. Prior to measurement, any foils (e.g. the cover sheet) and mask layers were removed from the relief precursor. Measurements were carried out in oscillation single frequency mode. The frequency was set to 1 Hz. The gap between the parallel plates was set constant to the respective sample thickness. Data points were recorded every 15 s. The complex shear viscosity η* was monitored over time t. The “onset time of crosslinking” was identified as “the time when the difference quotient Δη*/Δt is ≥1 Pa, with Δt=15 s”. A higher onset time indicates a higher thermal stability and stability towards mechanical stress.
In this example, another trial formulation based on a SIS tri-block copolymer was used. […]

Onset time t (Δη*/Δt ≥ 1 Pa)/min | SMILES
16 min | Cc1cc(C(C)(C)C)c(O)c(C(C)(C)C)c1 [BHT, 2,6-di-tert-butyl-4-methylphenol, reference compound]

Assay: Kneading trials at 180° C., onset of crosslinking seen as increase in torque
Type: physicochemical
Conditions: kneading at 180° C. for 60 min, SBS binder plus stabilizer
Procedure: Kneading trials were carried out using a ThermoFisher Scientifc Haake kneading device equipped with a Haake PolyLab OS RheoDrive 7 control unit, a Haake Rheomix 600 OS heating and kneading chamber with Roller Rotors R600. The torque and the sample temperature were recorded using the software PolySoft, version 2.1.0.1. For the measurement, a temperature of 180° C. was applied. The measurement was carried out for 60 min, respectively. The components were added to the kneading device as solids and were allowed to be mixed in the kneading device.
In the given sample, the amount of stabilizer was varied in the range of 0 to 1.0 parts by weight and the excess was counterbalanced by the amount of binder, respectively.
An increase in torque indicated the onset of crosslinking of the SBS-rubber due to insufficient stabilization. Without additional stabilizer, an increase in torque was observed within the first 10 min of measurement time. With BHT as stabilizer, an increase in torque was detected after 28 min of heating at 180° C. With ascorbyl palmitate, the best result was achieved, where crosslinking was observed after 50 min.

Onset time t/min | SMILES
28 min | Cc1cc(C(C)(C)C)c(O)c(C(C)(C)C)c1 [BHT, 2,6-di-tert-butyl-4-methylphenol, reference compound]
